PubChem BioAssay (NCI)
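Each compound was tested at five concentrations against cells in 96-well plates for 48 hours. GI50 = concentration required for 50% inhibition of growth. TGI: total growth inhibition.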

Assays:
Test in all cases: NCI tumour cell line growth inhibition, 48 h
[1] = tested on: EKVX NSCLC
[2] = tested on: TK-10 renal
[3] = tested on: SNB-75 CNS
[4] = tested on: HCT-15 colon
[5] = tested on: NCI-H226 lung
[6] = tested on: SF-268 CNS
[7] = tested on: CCRF-CEM leukemia
[8] = tested on: HCC-2998 colon
[9] = tested on: HL-60(TB) leukemia
[10] = tested on: BT-549 breast
[11] = tested on: MALME-3M melanoma
[12] = tested on: HOP-92 NSCLC
[13] = tested on: IGROV1 ovarian
[14] = tested on: 786-0 renal
[15] = tested on: KM12 colon
[16] = tested on: NCI-H460 lung
[17] = tested on: SN12C renal
[18] = tested on: SK-MEL-2 melanoma

SMILES | TGI [1] [µM] | TGI [2] [µM] | TGI [3] [µM] | TGI [4] [µM] | TGI [5] [µM] | TGI [6] [µM] | TGI [7] [µM] | TGI [8] [µM] | TGI [9] [µM] | TGI [10] [µM] | TGI [11] [µM] | TGI [12] [µM] | TGI [13] [µM] | TGI [14] [µM] | TGI [15] [µM] | TGI [16] [µM] | TGI [17] [µM] | TGI [18] [µM] | GI50 [3] [µM] | GI50 [8] [µM]
C=C(C(=O)O)[C@@H]1C[C@@H]2O[C@H]1CC(C)=CCC/C(C)=C/CC[C@@]2(C)O | > 100 | > 100 | > 100 | > 100 | > 100 | > 100 | > 100 | > 100 | > 100 | > 100 | > 100 | > 100 | > 100 | > 100 | > 100 | > 100 | > 100 | > 100 | – | –
CC(=O)O[C@H]1[C@@H](N2CCN(C)CC2)C[C@H]2[C@@H]3CC=C4C[C@@H](N5CCCC5)CC[C@]4(C)[C@H]3CC[C@@]21C | > 100 | > 100 | > 100 | > 100 | > 100 | > 100 | > 100 | > 100 | 30.1 | > 100 | 51 | > 100 | > 100 | > 100 | > 100 | > 100 | > 100 | > 100 | – | –
O=C(O)c1cc(Sc2ccc([N+](=O)[O-])c(C(=O)O)c2)ccc1[N+](=O)[O-] | > 100 | > 100 | > 100 | > 100 | > 100 | > 100 | > 100 | > 100 | > 100 | > 100 | > 78.9 | > 100 | > 100 | > 100 | > 100 | > 100 | > 100 | > 100 | > 100 | > 100
CN(C(=O)c1cccs1)C(=S)N1CCN(c2ccccc2)CC1 | – | > 100 | > 100 | > 100 | > 100 | > 100 | > 100 | > 100 | > 100 | > 100 | > 100 | > 100 | > 100 | > 100 | > 100 | > 100 | > 100 | > 100 | – | –
Cc1cccc(NC(=S)N/N=C(/c2ccccc2)c2ccccn2)c1 | 4.08 | 16 | 22.1 | 16.5 | 6 | 12.6 | 1.48 | 19.7 | 1.53 | 17 | 12.6 | 15.7 | 16.7 | 14.6 | 13.8 | 8.91 | 12.4 | 14.5 | – | –
CC1(C)O[C@@H]2[C@@H]3OC(=O)C[C@@H]3[C@@H](COCc3ccccc3)[C@@H]2O1 | > 100 | > 100 | > 100 | > 100 | > 100 | > 100 | > 100 | > 100 | > 100 | > 100 | > 100 | > 100 | > 100 | > 100 | > 100 | > 100 | > 100 | > 100 | – | –
O=C(O)C(F)(OC(F)(F)C(F)(OC(F)(F)C(F)(F)C(F)(F)F)C(F)(F)F)C(F)(F)F (configuration not stated) | > 100 | > 100 | > 100 | > 100 | > 100 | > 100 | > 100 | > 100 | > 100 | > 100 | > 100 | > 100 | > 100 | > 100 | > 100 | > 100 | > 100 | > 100 | – | –
c1ccc2c(c1)C(=Nc1ccc(N=C3c4ccccc4-c4ccccc43)cc1)c1ccccc1-2 | > 100 | > 100 | – | > 100 | > 100 | > 100 | > 100 | > 100 | > 100 | > 100 | > 100 | > 100 | > 100 | > 100 | > 100 | > 100 | > 100 | > 100 | – | –
CC1Cc2cc(O)ccc2C2[C@@H]1C1CC[C@H](O)[C@@]1(C)C[C@@H]2O[N+](=O)[O-] (some centres not stated) | > 100 | 63.8 | > 100 | > 78.7 | > 100 | > 93.1 | 41.9 | 22 | 8.3 | 48.9 | > 79.6 | 97.6 | > 100 | 65.3 | > 79.1 | > 95.7 | > 94.4 | 55.3 | – | –
CCN(CC)C1=Nc2ccccc2-n2c(C)cnc2C1 | > 100 | > 100 | > 100 | > 100 | > 100 | > 100 | > 100 | > 100 | > 100 | > 100 | > 100 | > 100 | > 100 | > 100 | > 100 | > 100 | > 100 | > 100 | – | –
CCCCCC(/C=N/N)C(O)(C(F)(F)F)C(F)(F)F (configuration not stated) | 7.3 | > 10 | 9.63 | 9.54 | 8.63 | 5.92 | > 10 | > 10 | > 10 | 9.27 | 6.69 | 6.36 | > 10 | > 10 | > 10 | 8.03 | > 10 | > 10 | – | –
CN(C)/C=N/S(=O)(=O)c1nn2c(C=O)c(-c3ccc(-c4ccc([N+](=O)[O-])cc4)o3)nc2s1 | 21.1 | 15.1 | 36.6 | 12.5 | > 64.7 | > 29 | 3.98 | 14.7 | 2.54 | 8.05 | 4.15 | 8.12 | 4.42 | 2.47 | > 49.1 | 8.42 | 4.57 | 25.9 | – | –
O=C1OC(c2ccccc2)N/C1=C\c1ccc2c(c1)OCO2 (configuration not stated) | > 100 | > 100 | > 100 | > 100 | > 100 | > 100 | 99.6 | > 100 | 0.684 | > 100 | – | > 100 | > 100 | > 100 | > 95.5 | > 100 | > 100 | > 100 | – | –
Cc1c2cccc-2c(OCCO)cc2c1[nH]c1ccccc12 | 5.18 | 14.2 | 3.95 | 22.9 | 21 | – | > 29.6 | 12.1 | > 19.9 | 7.34 | 3.49 | > 28.7 | 8.92 | 7.14 | 7.04 | 18.3 | 11.8 | 12 | – | –
CC1(C)OC(=S)N(c2ccccc2)C12C=Cc1cc3ccccc3cc1O2 (configuration not stated) | > 100 | > 100 | > 100 | > 100 | > 100 | > 100 | > 100 | > 100 | > 100 | > 100 | – | > 100 | > 100 | > 100 | > 100 | > 100 | > 100 | > 100 | – | –
O=C1O[C@H]2[C@@H]3OC(=O)c4cc(O)c(O)c(O)c4-c4c(cc(O)c(O)c4O)C(=O)OC[C@H]2O[C@@H](OC(=O)c2cc(O)c(O)c(O)c2)[C@@H]3OC(=O)c2cc(O)c(O)c3c2[C@@H]2C1=CC(=O)C(O)(O)C2(O)O3 (some centres not stated) | > 100 | – | 86.4 | > 100 | > 100 | > 100 | > 100 | > 100 | > 100 | > 100 | > 100 | > 100 | > 100 | 39.8 | 80.1 | > 100 | 32.3 | > 100 | – | –
CCOC(=O)c1cc(-c2ccc(Cl)cc2)c([N+](=O)[O-])n1C | > 10 | > 10 | – | > 10 | > 10 | > 10 | > 10 | > 10 | > 10 | > 10 | > 10 | > 10 | > 10 | > 10 | > 10 | > 10 | > 10 | > 10 | – | –
COC(=O)C1CCC(=O)N1C(c1ccc2c(c1)OCO2)c1ccc2c(c1)OCO2 (configuration not stated) | > 100 | > 100 | > 100 | > 100 | > 100 | > 100 | > 100 | > 100 | > 100 | > 100 | > 100 | > 100 | > 100 | > 100 | > 100 | > 100 | > 100 | > 100 | – | –
COC(=O)[C@@H]1C[C@]2(CC=C(C)C)c3ccccc3N(S(=O)(=O)c3ccccc3)[C@@H]2N1C(=O)OC | 27.5 | > 100 | 38.2 | 55.8 | 89.1 | 99.3 | > 100 | 40.1 | 33.5 | > 100 | > 100 | > 100 | – | > 100 | > 100 | 94 | > 100 | 34.3 | – | –
C/C(=N\Nc1nc2ccccc2o1)c1ccncn1 | > 100 | > 63.4 | > 48.2 | > 58.1 | > 100 | > 53.8 | > 100 | 29 | 0.0585 | > 100 | 97.5 | 6.05 | 30.9 | 18.3 | 11.6 | > 42.6 | > 100 | > 25.8 | – | –
O=C(/C(=C/c1cccs1)c1ccccc1)c1ccccc1 | > 100 | > 100 | > 100 | > 100 | > 100 | > 100 | > 100 | > 100 | > 100 | > 100 | – | > 100 | > 100 | > 100 | > 100 | > 100 | > 100 | > 100 | – | –
COC(Cc1ccccc1)NC(C)=O (configuration not stated) | > 100 | > 100 | > 100 | > 100 | > 100 | > 100 | > 100 | > 100 | > 100 | > 100 | > 100 | > 100 | > 100 | > 100 | > 100 | > 100 | > 100 | > 100 | – | –
O=C(N/C(=C\c1ccccc1)C1Nc2ccccc2C(=O)O1)c1ccccc1 (configuration not stated) | > 100 | > 100 | > 100 | > 100 | > 100 | > 100 | 46.5 | 38.6 | 36.1 | 62.2 | 45.6 | > 100 | > 100 | 59 | 31.2 | 35.5 | 84.6 | 62 | – | –
